Test results from EP0658109B1, “METALLO PORPHYRIN COMPOSITIONS” (priority 1992, dated 1994).
pIC50: −log10 of the molar value. Like-named read-outs stand apart in the source and are kept apart here.

How the values were obtained:
[1] = MTT cell viability assay (cytotoxicity); assay type: cell-based, monkey; conditions: monkey, cytotoxicity towards COS A6 cells cultured in the absence of FCS, read-out: LD50 (the source's name)
From the text: (§1) Ex vivo Assay of HIV-1 Polyprotein Processing. COS A6 cells were the result of stable integration of the vector HIV-gpt by transfection of COS-7 cells. This SV40-based vector consists of the HIV-1 HXB2 strain proviral genome where the gp160 sequences were replaced by the […] (gpt) gene. Following transfection, the cells were placed under selection for gpt expression by adding mycophenolic acid to the media. Surviving cells were later cloned and assayed for expression of gag p24 protein by ELISA and Western blots of culture supernatants and whole cell extracts. The cloned COS A6 cell line was maintained in DME H21 supplemented with 10% dialyzed and refiltered fetal calf serum (FCS), antibiotics (100 U/ml penicillin G, 100 µg/ml streptomycin sulfate), hypoxanthine (14 µg/ml), xanthine (250 µg/ml), and mycophenolic acid (25 µg/ml), at 37°C and 5% CO2.
(§2) MTT Cell Viability Assay. Cell survival was assessed by a quantitative colorimetric assay. The tetrazolium salt 3-(4,5-dimethylthiazol-2-yl)2,5-diphenyltetrazolium bromide (MTT) is cleaved by dehydrogenases in active mitochondria of living cells to yield a change in color from yellow to purple. To obtain the LD50 values for each compound, the concentration was determined at which the absorbance at 550-570 nm was half of that for the untreated cells. Compounds were tested in duplicate, in serial dilutions generally ranging from 10-250 µM concentrations in the presence of 0-0.1% DMSO. MTT assays were carried out in both the presence and absence of 10% FCS.
(§3) Cytotoxicity of compounds (LD50) and their ability to inhibit capsid protein processing ex vivo during 4 hour incubations (IC50) were studied. A plasmid which encodes the HIV-1 proviral genome, with the exception of the […] envelope protein, was stably introduced into the monkey cell line COS 7. Cloned progeny, COS A6 cells, constitutively release viral capsids into the media. Inhibition of polyprotein processing was determined by measuring the amount of p24 present in the viral capsid samples with an ELISA assay. The decrease in the amount of detectable p24 antigen correlated with a specific inhibition of HIV PR activity, judged by the accumulation of capsid precursor in conjunction with a disappearance of the p24 mature protein band in Western blots. The MTT stain assay was used to obtain LD50 values for all the compounds tested.

[2] = target: T1, Recombinant HIV-1 protease (HIV-1 PR) (Human immunodeficiency virus type 1 group M subtype B, UniProt P03369); assay type: biochemical
T1 construct: Recombinant HIV-1 protease (HIV-1 PR) was expressed and purified; made in house; host or cells: E. coli strain D1210
Method: (§4) Recombinant Protein Preparation. Recombinant HIV-1 protease (HIV-1 PR) was expressed and purified from E. coli strain D1210 using the pSOD/PR179 vector. Recombinant HIV-2 protease (HIV-2 PR) and SIV protease (SIV PR) were expressed and purified from strain X90 using pTacTac vectors.
(§5) Enzyme Assays. HIV-1, HIV-2, and SIV PRs were assayed against the decapeptide corresponding to the HIV-1 PR C-terminal autoprocessing site, by means of a discontinuous HPLC assay. Recombinant human renin and porcine pepsin were obtained and assayed using standard conditions. Bovine cathepsin D and its chromogenic substrate were purchased from Sigma. The enzyme was assayed by standard methods.
Stock solutions of the porphyrin derivatives (1 µ M-10mM) in 100% DMSO were used in IC50 determinations. […] Control reactions contained 5% DMSO only. Enzymes were preincubated with inhibitor for 1 minute at 25°C, followed by addition of substrate to initiate the reaction. As earlier noted, assays were also carried out in the absence of DMSO, when possible.
Figure 1 is a Dixon plot of inventive embodiment 5 (which is a representative example of the other embodiments) in inhibition of HIV-1 protease, where purified HIV-1 protease (6 x 10^-1 mg/ml) was incubated with the inventive inhibitor in 50 mM sodium acetate buffer, pH 5.5, containing 1 mM dithiothreitol, 1 mM EDTA, and 1 M NaCl. […] The assay solutions were incubated for 30-45 minutes at 37° and enzyme activity was determined by quantitation of the hydrolysis products on HPLC.

Bovine cathepsin D = target: T2, Bovine cathepsin D (Bos taurus, UniProt P80209); assay: Cathepsin D inhibition, chromogenic substrate; assay type: biochemical; conditions: absence of DMSO
T2 construct: purchased Sigma
Method: as §5
(§6) Stock solutions of the porphyrin derivatives (1 µ M-10mM) in 100% DMSO were used in IC50 determinations. Since many of the derivatives were insoluble in buffer alone, including the free acid forms of the carborane compounds, DMSO was used to increase solubility and allow a comparison of the binding affinity. Compounds were added to buffer solutions containing additional DMSO to give a final concentration of 5%. Control reactions contained 5% DMSO only. Enzymes were preincubated with inhibitor for 1 minute at 25°C, followed by addition of substrate to initiate the reaction. As earlier noted, assays were also carried out in the absence of DMSO, when possible. Dipotassium salts of several of the inhibitors were soluble in aqueous solution and were assayed in the absence of DMSO for K1 and IC50 determinations.

C6 glioma = assay: Colony survival (cytotoxicity); assay type: cell-based; conditions: in the presence of FCS, read-out: LD50 (the source's name)
V79 CHO cells = assay: Colony survival (cytotoxicity); assay type: cell-based; conditions: in the presence of FCS, read-out: LD50 (the source's name)
[3] = target: T3, Recombinant HIV-2 protease (HIV-2 PR) (Human immunodeficiency virus type 2 subtype A, UniProt P04584); assay: HIV-2 protease inhibition, discontinuous HPLC assay of decapeptide cleavage; assay type: biochemical
T3 construct: Recombinant HIV-2 protease (HIV-2 PR) and SIV protease (SIV PR) were expressed and purified; made in house; host or cells: strain X90 (E. coli by own knowledge)
Method: as §4, §5, §6

Recombinant human renin = target: T4, Recombinant human renin (Homo sapiens, UniProt P00797); assay: Renin inhibition, standard conditions; assay type: biochemical; conditions: absence of DMSO
T4 sequence (P00797 67-406): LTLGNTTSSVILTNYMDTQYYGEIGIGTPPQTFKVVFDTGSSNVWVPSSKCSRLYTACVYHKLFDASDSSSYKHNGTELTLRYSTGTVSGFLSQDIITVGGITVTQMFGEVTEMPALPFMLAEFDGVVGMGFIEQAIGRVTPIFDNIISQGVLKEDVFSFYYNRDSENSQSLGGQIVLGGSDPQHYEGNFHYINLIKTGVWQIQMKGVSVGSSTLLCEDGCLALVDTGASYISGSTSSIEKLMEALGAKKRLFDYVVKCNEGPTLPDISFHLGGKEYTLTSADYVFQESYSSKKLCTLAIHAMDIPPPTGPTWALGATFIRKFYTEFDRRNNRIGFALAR
Method: as §5, §6

SIV protease (SIV PR) = target: T5, SIV protease (SIV PR) (Simian immunodeficiency virus, UniProt P05896); assay: SIV protease inhibition, discontinuous HPLC assay of decapeptide cleavage; assay type: biochemical; conditions: absence of DMSO
T5 construct: SIV protease (SIV PR) were expressed and purified from strain X90; made in house; host or cells: strain X90 (E. coli by own knowledge)
Method: as §4, §5
as §6, with “Dipotassium salts of several of the inhibitors were soluble in aqueous solution and were assayed in the absence of DMSO for K1 and IC50 determinations.” left out

mice = assay: Tolerance in mice; assay type: in vivo; conditions: doses as high as 200 mg/kg
COS A6 cells = assay: MTT cell viability assay (cytotoxicity); assay type: cell-based, monkey; conditions: cytotoxicity towards COS A6 cells cultured in the absence of FCS, read-out: LD50 (the source's name)
From the text: as §1, §2, §3

porcine pepsin = porcine pepsin (Sus scrofa, UniProt P00791); assay: Pepsin inhibition, standard conditions; assay type: biochemical; conditions: absence of DMSO
Method: as §5, §6

T3 sequence (P04584 514-612 limits assumed): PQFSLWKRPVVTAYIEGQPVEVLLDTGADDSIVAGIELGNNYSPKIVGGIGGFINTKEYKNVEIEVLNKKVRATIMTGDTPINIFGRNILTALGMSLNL
T5 sequence (P05896 501-596): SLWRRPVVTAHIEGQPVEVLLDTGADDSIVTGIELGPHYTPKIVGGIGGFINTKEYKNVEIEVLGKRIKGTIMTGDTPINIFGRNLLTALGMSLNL
porcine pepsin, sequence (P00791 60-385): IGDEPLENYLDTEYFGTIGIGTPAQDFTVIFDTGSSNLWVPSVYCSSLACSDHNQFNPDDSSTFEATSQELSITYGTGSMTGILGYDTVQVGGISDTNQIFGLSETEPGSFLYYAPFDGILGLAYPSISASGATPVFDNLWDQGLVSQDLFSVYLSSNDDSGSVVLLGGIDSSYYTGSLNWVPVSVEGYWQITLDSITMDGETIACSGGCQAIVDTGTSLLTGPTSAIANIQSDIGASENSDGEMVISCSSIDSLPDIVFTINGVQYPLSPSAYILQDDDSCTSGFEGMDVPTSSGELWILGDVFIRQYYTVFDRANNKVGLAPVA
T2 sequence (P80209 45-390): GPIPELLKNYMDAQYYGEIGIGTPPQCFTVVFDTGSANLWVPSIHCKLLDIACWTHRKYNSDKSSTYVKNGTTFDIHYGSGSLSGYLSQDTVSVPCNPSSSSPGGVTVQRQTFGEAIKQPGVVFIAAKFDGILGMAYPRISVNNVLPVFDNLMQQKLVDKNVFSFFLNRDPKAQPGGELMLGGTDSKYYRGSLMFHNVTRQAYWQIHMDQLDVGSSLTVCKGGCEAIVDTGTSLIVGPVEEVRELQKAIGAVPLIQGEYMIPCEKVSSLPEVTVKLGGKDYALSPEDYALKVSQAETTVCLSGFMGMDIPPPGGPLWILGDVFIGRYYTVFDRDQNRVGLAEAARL

In the case of CC1=C(C(COC(=O)c2ccc(N(C)C)cc2)OC(=O)c2ccc(N(C)C)cc2)c2cc3nc(cc4[nH]c(cc5[nH]c(cc1n2)c(C)c5CCC(=O)O)c(CCC(=O)O)c4C)C(C(COC(=O)c1ccc(N(C)C)cc1)OC(=O)c1ccc(N(C)C)cc1)=C3C (centres unmarked) [Comparative Embodiment 9], the CC50 [1] was > 250 µM.
In the case of CC1=C(C(COC(=O)c2ccccc2)OC(=O)c2ccccc2)c2cc3nc(cc4[nH]c(cc5[nH]c(cc1n2)c(C)c5CCC(=O)O)c(CCC(=O)O)c4C)C(C(COC(=O)c1ccccc1)OC(=O)c1ccccc1)=C3C (centres unmarked) [Comparative Embodiment 10], the CC50 [1] was 250 µM.
In the case of CC1=C(C(COC(=O)c2ccc3ccccc3c2)OC(=O)c2ccc3ccccc3c2)c2cc3nc(cc4[nH]c(cc5[nH]c(cc1n2)c(C)c5CCC(=O)O)c(CCC(=O)O)c4C)C(C(COC(=O)c1ccc2ccccc2c1)OC(=O)c1ccc2ccccc2c1)=C3C (centres unmarked) [Comparative Embodiment 11], the CC50 [1] was 250 µM.
Compound CC1=C(C(O)CO)c2cc3nc(cc4[nH]c(cc5[nH]c(cc1n2)c(C)c5CCC(=O)O)c(CCC(=O)O)c4C)C(C(O)CO)=C3C (centres unmarked) [Comparative Embodiment 12] has a CC50 [1] of 250 µM.
With “tetra-carborane carboxylate ester of 2,4-Di(α,β-dihydroxyethyl)deuteroporphyrin (IX) [Inventive Embodiment 1]” the pIC50 ([2]; absence of DMSO, dipotassium salts in aqueous solution, read-out: IC50 HIV-1 PR) was 7.30, the “fold more effective for HIV-1 PR than for HIV-2 and SIV PRs” value ([2]; from Table 4, absence of DMSO) was “approximately 5 fold” and the “fold more inhibitory for HIV-1 PR compared to cellular aspartyl proteases” value ([2]; from Table 4, absence of DMSO, listed as Inventive embodiment 1) was “at least 60 fold”. The “fold more inhibitory for HIV-1 PR compared to cellular aspartyl proteases” value ([2]; from Table 4, absence of DMSO, listed as inventive embodiment 1) was “at least a sixty-fold”, the pIC50 ([2]; in the presence of 5% DMSO, read-out: IC50 in vitro HIV-1) was 6.73 and the “decrease of inhibition of HIV-1 PR by fetal calf serum” value ([2]; incubation with 0.1% FCS, 50 nM inhibitor) was “more than 50%”. The pIC50 ([2]; matches the series without DMSO, read-out: IC50 HIV-1 protease) was 7.30, the pIC50 (Bovine cathepsin D) was 5.00 and the CC50 (C6 glioma) was 100 to 125 µM. For the same compound, the CC50 (V79 CHO cells) was ≥ 150 µM, the pIC50 ([3]; absence of DMSO, dipotassium salts in aqueous solution, read-out: IC50 HIV-2 PR) was 6.64 and the pIC50 ([3]; in the presence of 5% DMSO, read-out: IC50 in vitro HIV-2) was 6.15. It also gave a pIC50 ([3]; matches the series without DMSO, read-out: IC50 HIV-2 protease) of 6.64, a pIC50 (Recombinant human renin) of 5.52 and a pIC50 (SIV protease (SIV PR)) of 6.60. The “tolerance in mice (morbidity or mortality)” value (mice) was “no apparent signs of morbidity or mortality”, the CC50 (COS A6 cells) was 25 µM and the “concentrations readily prepared in water (water solubility)” value was 100 to 200 mg/mL. For the same compound, the pIC50 (porcine pepsin) was 5.40.
